According to patent US20060293307A1, “Oxazolidinone derivatives as antimicrobials” (priority 2002, published 2006):
Values after ≈ are worked out from the molar mass of the structure shown. Read-outs that look alike come from different tables or passages of the source.

Tests used:
Test in all cases: MIC, agar incorporation method
S. pneumoniae AB-3 = type: cell-based, Streptococcus pneumoniae; conditions: S. No. 32, S. pneumoniae AB-3
S. aureus (MRSA) ST450 = type: cell-based, Staphylococcus aureus; conditions: S. No. 6, S. aureus (MRSA) ST450
E. faecalis 21777 = type: cell-based; conditions: S. No. 18, E. faecalis 21777
S. haemo ATCC 29970 = type: cell-based; conditions: S. No. 15, S. haemo ATCC 29970
P. aeruginosa ATCC 27853 = type: cell-based; conditions: S. No. 28, P. aeruginosa ATCC 27853
S. pneumoniae 1256 = type: cell-based, Streptococcus pneumoniae; conditions: S. No. 56, S. pneumoniae 1256
S. pneumoniae AB 25 = type: cell-based, Streptococcus pneumoniae; conditions: S. No. 45, S. pneumoniae AB 25
S. pneumoniae AB 34 = type: cell-based, Streptococcus pneumoniae; conditions: S. No. 49, S. pneumoniae AB 34
S. aureus SG 511 = type: cell-based, Staphylococcus aureus; conditions: S. No. 3, S. aureus SG 511
E. faecalis 29212 = type: cell-based; conditions: S. No. 17, E. faecalis 29212
S. pneumoniae AB 29 = type: cell-based, Streptococcus pneumoniae; conditions: S. No. 46, S. pneumoniae AB 29
[1] = system: Serratia marcescens 12999; type: cell-based; conditions: S. No. 29, Serratia marcescens 12999
E. faecalis SP 346 (VRE) = type: cell-based; conditions: S. No. 20, E. faecalis SP 346 (VRE)
S. pyogenes 19615 = type: cell-based, Streptococcus pyogenes; conditions: S. No. 51, S. pyogenes 19615
[2] = system: S. epidermidis (MRSE)32965; type: cell-based, Staphylococcus epidermidis; conditions: S. No. 13, S. epidermidis (MRSE)32965
S. epidermidis 358 = type: cell-based, Staphylococcus epidermidis; conditions: S. No. 14, S. epidermidis 358
S. pneumoniae AB 22 = type: cell-based, Streptococcus pneumoniae; conditions: S. No. 42, S. pneumoniae AB 22
S pneumoniae 1294. = type: cell-based, Streptococcus pneumoniae; conditions: S. No. 55, S pneumoniae 1294.
S. pneumoniae CS 1687 = type: cell-based, Streptococcus pneumoniae; conditions: S. No. 44, S. pneumoniae CS 1687
S. pneumoniae 1275 = type: cell-based, Streptococcus pneumoniae; conditions: S. No. 57, S. pneumoniae 1275
S. aureus ATCC29213 = type: cell-based, Staphylococcus aureus; conditions: S. No. 2, S. aureus ATCC29213
Salmonella 205 = type: cell-based; conditions: S. No. 26, Salmonella 205
Protocol: The compounds of the invention display antibacterial activity when tested by the agar incorporation method. The following minimum inhibitory concentrations (μg/ml) were obtained for representative compounds of the invention which are given below in the following tables.
Briefly, the compounds were dissolved in DMSO and doubling dilution of the compounds were incorporated into Meer Hilton agar before solidification. Inoculum was prepared by suspending 4 to 5 colonies into 5 ml of normal saline solution and adjusting the turbidity to 0.5 Macfarland turbidity standard tables (1.5×10^8 CFU/ml), after appropriate dilutions, 10^4 CFU/spot was transfered into the surface of dried plate and incubated for 18 hours (24 hours for MRSN studies). The concentration showing no growth of the inoculated culture was recorded as the MIC. Appropriate ATCC standard strains were simultaneously tested and result recorded only when the MIC's against standard antibiotics were within the acceptable range.

E. faecium 398(VRE) = type: cell-based, Enterococcus faecium; conditions: S. No. 22, E. faecium 398(VRE)
S. pneumoniae AB 17 = type: cell-based, Streptococcus pneumoniae; conditions: S. No. 40, S. pneumoniae AB 17
S. pneumoniae AB-2 = type: cell-based, Streptococcus pneumoniae; conditions: S. No. 31, S. pneumoniae AB-2
S. aureus (Smith 49951) = type: cell-based, Staphylococcus aureus; conditions: S. No. 9, S. aureus (Smith 49951)
(MRSA) 562 = type: cell-based, Staphylococcus aureus; conditions: S. No. 8, (MRSA) 562
S. pneumoniae AB 30 = type: cell-based, Streptococcus pneumoniae; conditions: S. No. 47, S. pneumoniae AB 30
S. pneumoniae CS1221 = type: cell-based, Streptococcus pneumoniae; conditions: S. No. 34, S. pneumoniae CS1221
S. pneumoniae ATCC 49619 = type: cell-based, Streptococcus pneumoniae; conditions: S. No. 48, S. pneumoniae ATCC 49619
S. pyogenes 25147 = type: cell-based, Streptococcus pyogenes; conditions: S. No. 52, S. pyogenes 25147
[3] = Staphylococcus aureus, read-out: MIC
[4] = Enterococcus faecalis, read-out: MIC
[5] = Streptococcus pneumoniae, read-out: MIC
[6] = Streptococcus pyogenes, read-out: MIC
[7] = Staphylococcus epidermidis, read-out: MIC

C[C@H](Cl)C(=O)NCC1CN(c2ccc(N3CCN(c4ccc([N+](=O)[O-])s4)CC3)c(F)c2)C(=O)O1 (stereo partly drawn) [Compound No. 7, (S)—N-[[3-[3-Fluoro-4-[N-1-{4-(5-nitro-2-thienyl)piperazinyl}]-phenyl]-2-oxo-5-oxazolidinyl]-methyl]-2-chloro-propionamide] was tested, and the MIC (S. pneumoniae AB-3) was 0.5 µg/mL (≈ 0.977 µM), the MIC (S. aureus (MRSA) ST450) was over 8 µg/mL and the MIC (E. faecalis 21777) was over 8 µg/mL. It also gave an MIC (S. haemo ATCC 29970) of 2 µg/mL (≈ 3.91 µM), an MIC (P. aeruginosa ATCC 27853) of over 8 µg/mL and an MIC (S. pneumoniae 1256) of 0.25 µg/mL (≈ 0.488 µM). It also gave an MIC (S. pneumoniae AB 25) of 0.5 µg/mL (≈ 0.977 µM), an MIC (S. pneumoniae AB 34) of 4 µg/mL (≈ 7.81 µM) and an MIC (S. aureus SG 511) of over 8 µg/mL. For the same compound, the MIC (E. faecalis 29212) was over 8 µg/mL, the MIC (S. pneumoniae AB 29) was 0.5 µg/mL (≈ 0.977 µM) and the MIC [1] was over 8 µg/mL. The MIC (E. faecalis SP 346 (VRE)) was over 8 µg/mL, the MIC (S. pyogenes 19615) was 2 µg/mL (≈ 3.91 µM) and the MIC [2] was 2 µg/mL (≈ 3.91 µM). For the same compound, the MIC (S. epidermidis 358) was 2 µg/mL (≈ 3.91 µM), the MIC (S. pneumoniae AB 22) was 1 µg/mL (≈ 1.95 µM) and the MIC (S pneumoniae 1294.) was 2 µg/mL (≈ 3.91 µM). It also gave an MIC (S. pneumoniae CS 1687) of 2 µg/mL (≈ 3.91 µM), an MIC (S. pneumoniae 1275) of 0.25 µg/mL (≈ 0.488 µM) and an MIC (S. aureus ATCC29213) of over 8 µg/mL. For the same compound, the MIC (Salmonella 205) was over 8 µg/mL, the MIC (E. faecium 398(VRE)) was 8 µg/mL (≈ 15.6 µM) and the MIC (S. pneumoniae AB 17) was 1 µg/mL (≈ 1.95 µM). For the same compound, the MIC (S. pneumoniae AB-2) was 0.5 µg/mL (≈ 0.977 µM), the MIC (S. aureus (Smith 49951)) was over 8 µg/mL and the MIC ((MRSA) 562) was over 8 µg/mL. The MIC (S. pneumoniae AB 30) was 0.5 µg/mL (≈ 0.977 µM), the MIC (S. pneumoniae CS1221) was 0.5 µg/mL (≈ 0.977 µM) and the MIC (S. pneumoniae ATCC 49619) was 0.5 µg/mL (≈ 0.977 µM). The MIC (S. pyogenes 25147) was 2 µg/mL (≈ 3.91 µM).

Compound CC(=O)NC[C@H]1CN(c2ccc(N3CCN(c4ccc(C=O)o4)CC3)c(F)c2)C(=O)O1 [Compound No. 3, (S)—N-[[3-[3-Fluoro-4-[4-(5-formyl-2-furyl)-1-piperazinyl]phenyl]-2-oxo-5-oxazolidinyl]methyl]acetamide] has an MIC (S. pneumoniae AB-3; Streptococcus pneumoniae, AB3, read-out: MIC) of 0.25 µg/mL (≈ 0.581 µM), an MIC (S. aureus (MRSA) ST450; [3]) of 1 µg/mL (≈ 2.32 µM) and an MIC (E. faecalis 21777; [4]) of 0.5 µg/mL (≈ 1.16 µM). The MIC (S. haemo ATCC 29970; read-out: MIC) was 0.25 µg/mL (≈ 0.581 µM), the MIC (P. aeruginosa ATCC 27853; Pseudomonas aeruginosa, ATCC27853, read-out: MIC) was over 16 µg/mL and the MIC (S. pneumoniae 1256; [5]) was 0.5 µg/mL (≈ 1.16 µM). The MIC (S. pneumoniae AB 25; Streptococcus pneumoniae, AB25, read-out: MIC) was 0.25 µg/mL (≈ 0.581 µM), the MIC (S. pneumoniae AB 34; Streptococcus pneumoniae, AB34, read-out: MIC) was 0.25 µg/mL (≈ 0.581 µM) and the MIC (S. aureus SG 511; Staphylococcus aureus, SG511, read-out: MIC) was 1 µg/mL (≈ 2.32 µM). For the same compound, the MIC (E. faecalis 29212; [4]) was 0.5 µg/mL (≈ 1.16 µM), the MIC (S. pneumoniae AB 29; Streptococcus pneumoniae, AB29, read-out: MIC) was 0.25 µg/mL (≈ 0.581 µM) and the MIC ([1]; read-out: MIC) was over 16 µg/mL. For the same compound, the MIC (E. faecalis SP 346 (VRE); [4]) was 0.5 µg/mL (≈ 1.16 µM), the MIC (S. pyogenes 19615; [6]) was 0.25 µg/mL (≈ 0.581 µM) and the MIC [2, 7] was 0.5 µg/mL (≈ 1.16 µM). For the same compound, the MIC (S. epidermidis 358; [7]) was 0.5 µg/mL (≈ 1.16 µM), the MIC (S. pneumoniae AB 22; Streptococcus pneumoniae, AB22, read-out: MIC) was 0.25 µg/mL (≈ 0.581 µM) and the MIC (S pneumoniae 1294.; [5]) was 0.25 µg/mL (≈ 0.581 µM). It also gave an MIC (S. pneumoniae CS 1687; Streptococcus pneumoniae, CS1687, read-out: MIC) of 0.25 µg/mL (≈ 0.581 µM), an MIC (S. pneumoniae 1275; [5]) of under 0.125 µg/mL and an MIC (S. aureus ATCC29213; [3]) of 1 µg/mL (≈ 2.32 µM). The MIC (Salmonella 205; read-out: MIC) was over 16 µg/mL, the MIC (E. faecium 398(VRE); Enterococcus faecium, read-out: MIC) was 0.5 µg/mL (≈ 1.16 µM) and the MIC (S. pneumoniae AB 17; Streptococcus pneumoniae, AB17, read-out: MIC) was under 0.125 µg/mL. The MIC (S. pneumoniae AB-2; Streptococcus pneumoniae, AB2, read-out: MIC) was under 0.125 µg/mL, the MIC (S. aureus (Smith 49951); [3]) was 0.5 µg/mL (≈ 1.16 µM) and the MIC ((MRSA) 562; [3]) was 0.5 µg/mL (≈ 1.16 µM). For the same compound, the MIC (S. pneumoniae AB 30; Streptococcus pneumoniae, AB30, read-out: MIC) was 0.25 µg/mL (≈ 0.581 µM), the MIC (S. pneumoniae CS1221; [5]) was 0.25 µg/mL (≈ 0.581 µM) and the MIC (S. pneumoniae ATCC 49619; Streptococcus pneumoniae, ATCC49619, read-out: MIC) was 0.25 µg/mL (≈ 0.581 µM). For the same compound, the MIC (S. pyogenes 25147; [6]) was 0.25 µg/mL (≈ 0.581 µM).
